# Earlier results as cited in US7482343B2, “Compounds, methods and compositions” (Cytokinetics, Inc., priority 2002, dated 2009).
# Tested on: A549 cells
# Details: data provided by National Cancer Institute
row,SMILES,GI50 [nM]
1,O=c1[nH]cc(F)c(=O)[nH]1 [5-fluorouracil],1000
2,COc1cccc2c1C(=O)c1c(O)c3c(c(O)c1C2=O)C[C@@](O)(C(=O)CO)C[C@@H]3O[C@H]1C[C@H](N)[C@H](O)[C@H](C)O1 [doxorubicin],63
3,NC(=O)NO [hydroxyurea],500000
4,CC(=O)O[C@H]1C(=O)[C@@]2(C)[C@H]([C@H](OC(=O)c3ccccc3)[C@]3(O)C[C@H](OC(=O)[C@H](O)[C@@H](NC(=O)c4ccccc4)c4ccccc4)C(C)=C1C3(C)C)[C@]1(OC(C)=O)CO[C@@H]1C[C@@H]2O [paclitaxel],4
